Test results taken from patent US20220313698A1, “MODULATORS OF CYSTIC FIBROSIS TRANSMEMBRANE CONDUCTANCE REGULATOR” (Vertex Pharmaceuticals Incorporated, priority 2019, published 2022).
Read-outs that look alike come from different tables or passages of the source.

Assays:
[1] = snar bond, 15-membered ring
[2] = molecular target: T1, CFTR-mediated chloride transport (Homo sapiens, UniProt P13569); test: Corrector Assay A - membrane potential dye assay (enteroid cells); settings: for Corrector Assay A % activity: % of chloride transport of triple combination control (1 μM (14S)-dispiro macrocycle + 3 μM tezacaftor + 300 nM ivacaftor); for EC50: read-out: Corrector Assay A EC50, human intestinal enteroid cells, 18-24 h incubation, acute 10 μM forskolin + 300 nM ivacaftor
Method: Base medium (ADF+++) consisted of Advanced DMEM/Ham's F12, 2 mM Glutamax, 10 mM HEPES, 1 μg/ml penicillin/streptomycin.
Intestinal enteroid maintenance medium (IEMM) consisted of ADF+++, 1×B27 supplement, 1×N2 supplement, 1.25 mM N-acetyl cysteine, 10 mM Nicotinamide, 50 ng/mL hEGF, 10 nM Gastrin, 1 μg/mL hR-spondin-1, 100 ng/mL hNoggin, TGF-b type 1 inhibitor A-83-01, 100 μg/mL Primocin, 10 μM P38 MAPK inhibitor SB202190.
Bath 1 Buffer consisted of 1 mM MgCl2, 160 mM NaCl, 4.5 mM KCl, 10 mM HEPES, 10 mM Glucose, 2 mM CaCl2).
Chloride Free Buffer consisted of 1 mM Magnesium Gluconate, 2 mM Calcium Gluconate, 4.5 mM Potassium Gluconate, 160 mM Sodium Gluconate, 10 mM HEPES, 10 mM Glucose.
Bath 1 Dye Solution consisted of Bath 1 Buffer, 0.04% Pluronic F127, 20 μM Methyl Oxonol, 30 μM CaCCinh-A01, 30 μM Chicago Sky Blue.
Chloride Free Dye Solution consisted of Chloride Free Buffer, 0.04% Pluronic F127, 20 μM Methyl Oxonol, 30 μM CaCCinh-A01, 30 μM Chicago Sky Blue.
Chloride Free Dye Stimulation Solution consisted of Chloride Free Dye Solution, 10 μM forskolin, 100 μM IBMX, and 300 nM Ivacaftor.
Cells were recovered in cell recovery solution, collected by centrifugation at 650 rpm for 5 min at 4° C., resuspended in TryPLE and incubated for 5 min at 37° C. Cells were then collected by centrifugation at 650 rpm for 5 min at 4° C. and resuspended in IEMM containing 10 μM ROCK inhibitor (RI). The cell suspension was passed through a 40 μm cell strainer and resuspended at 1×10^6 cells/mL in IEMM containing 10 μM RI. Cells were seeded at 5000 cells/well into multi-well plates and incubated for overnight at 37° C., 95% humidity and 5% CO2 prior to assay.
Briefly, cells were washed 5 times in Bath 1 Buffer. Bath 1 Dye Solution was added and the cells were incubated for 25 min at room temperature. Following dye incubation, cells were washed 3 times in Chloride Free Dye Solution. Chloride transport was initiated by addition of Chloride Free Dye Stimulation Solution and the fluorescence signal was read for 15 min. The CFTR-mediated chloride transport for each condition was determined from the AUC of the fluorescence response to acute forskolin and 300 nM N-[2,4-bis(1,1-dimethylethyl)-5-hydroxyphenyl]-1,4-dihydro-4-oxoquinoline-3-carboxamide stimulation. Chloride transport was then expressed as a percentage of the chloride transport following treatment with 1 μM (14S)-8-[3-(2-{Dispiro[2.0.2.1]heptan-7-yl}ethoxy)-1H-pyrazol-1-yl]-12,12-dimethyl-2λ^6-thia-3,9,11,18,23-pentaazatetracyclo[17.3.1.111,14.05,10]tetracosa-1(22),5,7,9,19(23),20-hexaene-2,2,4-trione, 3 μM (R)-1-(2,2-difluorobenzo[d][1,3]dioxol-5-yl)-N-(1-(2,3-dihydroxypropyl)-6-fluoro-2-(1-hydroxy-2-methylpropan-2-yl)-1H-indol-5-yl)cyclopropanecarboxamide and 300 nM acute N-[2,4-bis(1,1-dimethylethyl)-5-hydroxyphenyl]-1,4-dihydro-4-oxoquinoline-3-carboxamide triple combination control (% Activity).

[3] = molecular target: T1, CFTR-mediated chloride transport; test: Corrector Assay B - membrane potential dye assay (enteroid cells); settings: for Corrector Assay B % activity: % of chloride transport of triple combination control (3 μM Compound A + 3 μM tezacaftor + 300 nM ivacaftor); for EC50: read-out: Corrector Assay B EC50, human intestinal enteroid cells, 18-24 h incubation, acute 10 μM forskolin + 300 nM ivacaftor;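 as to all read-outs here: methyl oxonol membrane potential fluorescence followed over 15 min after switching to chloride-free buffer with forskolin, 100 µM IBMX and ivacaftor, in presence of CaCC blockers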

Structure (SMILES) | Corrector Assay A % activity [2] | EC50 [2] [nM] | Corrector Assay B % activity [3] | other results
CC(C)(C)c1ccc2c(n1)N1CC(CC1(C)C)OCCNc1cccc(n1)S(=O)(=O)NC2=O (stereo not shown) | – | – | – | ring closure, yield after HPLC ([1]; from CC(C)(C)OC(=O)N1CC(OCCNc2cccc(S(=O)(=O)NC(=O)c3ccc(C(C)(C)C)nc3F)n2)CC1(C)C, K2CO3, NMP, 73.3 mM, 160.0 °C, 2 steps): 61%
CC(C)(C)c1ccc2c(n1)N1CC(CCCOc3cccc(c3)S(=O)(=O)NC2=O)CC1(C)C (stereo not shown) | – | – | – | ring closure, yield after HPLC ([1]; from CC1(C)CC(CCCOc2cccc(S(=O)(=O)NC(=O)c3ccc(C(C)(C)C)nc3F)c2)CN1, K2CO3, NMP, 27.5 mM, 150.0 °C, 16.0 h): 41%
CC(C)(C)c1ccc2c(n1)N1CC(CCN(c3ccccc3)C(=O)c3cccc(c3)S(=O)(=O)NC2=O)CC1(C)C (stereo not shown) | – | – | – | ring closure, yield after HPLC ([1]; from CC1(C)CC(CCN(C(=O)c2cccc(S(=O)(=O)NC(=O)c3ccc(C(C)(C)C)nc3Cl)c2)c2ccccc2)CN1, K2CO3, then CsF/3A MS, NMP, 24.6 mM, 180.0 °C, 88.0 h): 29%
CC(C)(C)c1ccc2c(n1)N1C[C@@H](CCC(C3=CCN(C(=O)OCc4ccccc4)CC3)Nc3cccc(n3)S(=O)(=O)NC2=O)CC1(C)C (stereo partly shown) | – | – | – | ring closure, yield after HPLC ([1]; from CC1(C)C[C@H](CCC(Nc2cccc(S(=O)(=O)NC(=O)c3ccc(C(C)(C)C)nc3F)n2)C2=CCN(C(=O)OCc3ccccc3)CC2)CN1, K2CO3/3A MS, NMP, 29.7 mM, 155.0 °C, 18.0 h, 2 steps): 89%
CC(C)(C)c1ccc2c(n1)N1C[C@@H](CCC(C3CCN(C(=O)OCc4ccccc4)CC3)Nc3cccc(n3)S(=O)(=O)NC2=O)CC1(C)C (stereo partly shown) | – | – | – | ring closure, yield after HPLC ([1]; from CC1(C)C[C@H](CCC(Nc2cccc(S(=O)(=O)NC(=O)c3ccc(C(C)(C)C)nc3F)n2)C2CCN(C(=O)OCc3ccccc3)CC2)CN1, K2CO3, NMP, 42.0 mM, 140.0 °C, 16.0 h): 58%
CC(C)(C)c1ccc2c(n1)N1C[C@@H](CCC(CCC(C3CC3)C3CC3)Nc3cccc(n3)S(=O)(=O)NC2=O)CC1(C)C (stereo partly shown) | – | – | – | ring closure, yield after HPLC ([1]; from CC(C)(C)OC(=O)N1C[C@@H](CCC(CCC(C2CC2)C2CC2)Nc2cccc(S(=O)(=O)NC(=O)c3ccc(C(C)(C)C)nc3F)n2)CC1(C)C, K2CO3, DMSO, 77.1 mM, 140.0 °C, 2 steps): 46%
CC(C)(C)c1ccc2c(n1)N1C[C@@H](CCC(c3cc(Cl)ccn3)Nc3cccc(n3)S(=O)(=O)NC2=O)CC1(C)C (stereo partly shown) | – | – | – | ring closure, yield after HPLC ([1]; from CC(C)(C)OC(=O)N1C[C@@H](CCC(Nc2cccc(S(=O)(=O)NC(=O)c3ccc(C(C)(C)C)nc3F)n2)c2cc(Cl)ccn2)CC1(C)C, K2CO3, NMP, 142.0 mM, 140.0 °C, 2 steps): 43%
CC(C)(C)c1ccc2c(n1)N1C[C@@H](CCC(c3ccc(C(=O)O)cc3)Nc3cccc(n3)S(=O)(=O)NC2=O)CC1(C)C (stereo partly shown) | – | – | – | ring closure, yield after HPLC ([1]; from CC1(C)C[C@H](CCC(Nc2cccc(S(=O)(=O)NC(=O)c3ccc(C(C)(C)C)nc3Cl)n2)c2ccc(C(=O)O)cc2)CN1, K2CO3, NMP, 26.5 mM, 165.0 °C, 48.0 h): 24%
CC1(C)CC2CC(c3ccccc3)CNc3cccc(n3)S(=O)(=O)NC(=O)c3ccc(-n4ccc(OCCC5(C(F)(F)F)CC5)n4)nc3N1C2 (stereo not shown) | – | – | – | ring closure, yield after HPLC ([1]; from CC(C)(C)OC(=O)N1CC(CC(CNc2cccc(S(=O)(=O)NC(=O)c3ccc(-n4ccc(OCCC5(C(F)(F)F)CC5)n4)nc3Cl)n2)c2ccccc2)CC1(C)C, K2CO3/4A MS, DMSO, 44.7 mM, 140.0 °C, 2 steps): 60%
CC1(C)CC2CN1c1nc(-n3ccc(OCCC4(C(F)(F)F)CC4)n3)ccc1C(=O)NS(=O)(=O)c1cccc(n1)NCCC2c1ccccc1 (stereo not shown) | – | – | – | ring closure, yield after HPLC ([1]; from CC1(C)CC(C(CCNc2cccc(S(=O)(=O)NC(=O)c3ccc(-n4ccc(OCCC5(C(F)(F)F)CC5)n4)nc3Cl)n2)c2ccccc2)CN1, K2CO3/3A MS, DMSO, 38.4 mM, 155.0 °C, 16.0 h, 2 steps): 50%
CC1(C)C[C@@H]2CCC(c3ccc(C(=O)O)cc3)Nc3cccc(n3)S(=O)(=O)NC(=O)c3ccc(-n4ccc(OCCC5(C(F)(F)F)CC5)n4)nc3N1C2 (stereo partly shown) | – | – | – | ring closure, yield after HPLC ([1]; from CC1(C)C[C@H](CCC(Nc2cccc(S(=O)(=O)NC(=O)c3ccc(-n4ccc(OCCC5(C(F)(F)F)CC5)n4)nc3Cl)n2)c2ccc(C(=O)O)cc2)CN1, K2CO3, NMP, 19.4 mM, 150.0 °C, 18.0 h): 40%
CC1(C)C[C@@H]2CCCNc3cccc(n3)S(=O)(=O)NC(=O)c3cc(Cc4ccccc4)c(F)nc3N1C2 | – | – | – | ring closure, yield after HPLC ([1]; from CC1(C)C[C@H](CCCNc2cccc(S(=O)(=O)NC(=O)c3cc(Cc4ccccc4)c(F)nc3F)n2)CN1, K2CO3, NMP, 71.8 mM, 160.0 °C, 21.5 h, 2 steps): 33%
CCCC1(C)CC2CCCNc3cccc(n3)S(=O)(=O)NC(=O)c3ccc(-n4ccc(OCCC5(C(F)(F)F)CC5)n4)nc3N1C2 (single isomer, unassigned) [Compound 367, 12-methyl-12-propyl-8-(3-{2-[1-(trifluoromethyl)cyclopropyl]ethoxy}-1H-pyrazol-1-yl)-2λ^6-thia-3,9,11,18,23-pentaazatetracyclo[17.3.1.111,14.05,10]tetracosa-1(22),5,7,9,19(23),20-hexaene-2,2,4-trione] | +++ (+++ is >60%) | < 1000 | ++ (++ is 30-60%) | EC50 [3]: < 1000 nM
CC1(C)CC2CCC(c3ccccc3)Nc3cccc(n3)S(=O)(=O)NC(=O)c3ccc(-n4ccc(OCCC5(C(F)(F)F)CC5)n4)nc3N1C2 (single isomer, unassigned) [Compound 383, 12,12-Dimethyl-17-phenyl-8-(3-{2-[1-(trifluoromethyl)cyclopropyl]ethoxy}-1H-pyrazol-1-yl)-2λ^6-thia-3,9,11,18,23-pentaazatetracyclo[17.3.1.111,14.05,10]tetracosa-1(22),5,7,9,19(23),20-hexaene-2,2,4-trione] | ++ (++ is 30-60%) | < 1000 | +++ (+++ is >60%) | EC50 [3]: < 1000 nM
CC1(C)CC2CCC(c3ccccc3)Nc3cccc(n3)S(=O)(=O)NC(=O)c3ccc(-n4ccc(OCCC5(C(F)(F)F)CC5)n4)nc3N1C2 (single isomer, unassigned) [Compound 384, 12,12-Dimethyl-17-phenyl-8-(3-{2-[1-(trifluoromethyl)cyclopropyl]ethoxy}-1H-pyrazol-1-yl)-2λ^6-thia-3,9,11,18,23-pentaazatetracyclo[17.3.1.111,14.05,10]tetracosa-1(22),5,7,9,19(23),20-hexaene-2,2,4-trione] | + (+ is <30%) | < 1000 | ++ (++ is 30-60%) | –
CC1(C)CC2CN1c1nc(-n3ccc(OCCC4(C(F)(F)F)CC4)n3)ccc1C(=O)NS(=O)(=O)c1cccc(n1)NCCC2c1ccccc1 (single isomer, unassigned) [Compound 385, 12,12-dimethyl-15-phenyl-8-(3-{2-[1-(trifluoromethyl)cyclopropyl]ethoxy}-1H-pyrazol-1-yl)-2λ^6-thia-3,9,11,18,23-pentaazatetracyclo[17.3.1.111,14.05,10]tetracosa-1(22),5,7,9,19(23),20-hexaene-2,2,4-trione] | ++ (++ is 30-60%) | < 1000 | ++ (++ is 30-60%) | EC50 [3]: < 1000 nM
CC1(C)CC2CCC(c3ccccc3)Nc3cccc(n3)S(=O)(=O)NC(=O)c3ccc(-n4ccc(OCCC5(C(F)(F)F)CC5)n4)nc3N1C2 (single isomer, unassigned) [Compound 387, 12,12-Dimethyl-17-phenyl-8-(3-{2-[1-(trifluoromethyl)cyclopropyl]ethoxy}-1H-pyrazol-1-yl)-2λ^6-thia-3,9,11,18,23-pentaazatetracyclo[17.3.1.111,14.05,10]tetracosa-1(22),5,7,9,19(23),20-hexaene-2,2,4-trione] | +++ (+++ is >60%) | < 1000 | +++ (+++ is >60%) | –
CC1(C)CC2CC(c3ccccc3)CNc3cccc(n3)S(=O)(=O)NC(=O)c3ccc(-n4ccc(OCCC5(C(F)(F)F)CC5)n4)nc3N1C2 (single isomer, unassigned) [Compound 389, 12,12-dimethyl-16-phenyl-8-(3-{2-[1-(trifluoromethyl)cyclopropyl]ethoxy}-1H-pyrazol-1-yl)-2λ^6-thia-3,9,11,18,23-pentaazatetracyclo[17.3.1.111,14.05,10]tetracosa-1(22),5,7,9,19(23),20-hexaene-2,2,4-trione] | +++ (+++ is >60%) | < 1000 | +++ (+++ is >60%) | EC50 [3]: < 1000 nM
CC1(C)CC2CC(c3ccccc3)CNc3cccc(n3)S(=O)(=O)NC(=O)c3ccc(-n4ccc(OCCC5(C(F)(F)F)CC5)n4)nc3N1C2 (single isomer, unassigned) [Compound 391, 12,12-dimethyl-16-phenyl-8-(3-{2-[1-(trifluoromethyl)cyclopropyl]ethoxy}-1H-pyrazol-1-yl)-2λ^6-thia-3,9,11,18,23-pentaazatetracyclo[17.3.1.111,14.05,10]tetracosa-1(22),5,7,9,19(23),20-hexaene-2,2,4-trione] | +++ (+++ is >60%) | < 1000 | +++ (+++ is >60%) | –
CC1(C)CC2CN1c1nc(-n3ccc(OCCC4(C(F)(F)F)CC4)n3)ccc1C(=O)NS(=O)(=O)c1cccc(n1)NCCC2c1ccccc1 (single isomer, unassigned) [Compound 393, 12,12-dimethyl-15-phenyl-8-(3-{2-[1-(trifluoromethyl)cyclopropyl]ethoxy}-1H-pyrazol-1-yl)-2λ^6-thia-3,9,11,18,23-pentaazatetracyclo[17.3.1.111,14.05,10]tetracosa-1(22),5,7,9,19(23),20-hexaene-2,2,4-trione] | +++ (+++ is >60%) | < 1000 | +++ (+++ is >60%) | –
